Read-outs that look alike come from different tables or passages of the source.
Experiments:
[1] = molecular target: inactive form of GP IIb/IIIa (unactivated GP IIb/IIIa) (Homo sapiens, UniProt P05106+P08514); experiment: Fluorescence displacement of probe 2-8 from inactive (unactivated) form of GP IIb/IIIa; assay type: binding
ADP-stimulated platelets = experiment: Fibrinogen Receptor Antagonist Assay: ADP-stimulated platelet aggregation (gel-filtered human platelets); assay type: cell-based; conditions: gel-filtered human platelets 2×10^8 per ml, fibrinogen 100 μg/ml, Ca^2+ 1 mM, 10 μM ADP, 37° C.
Experimental: The fibrinogen receptor antagonist activity is based on evaluation of inhibition of ADP-stimulated platelets. Aggregation requires that fibrinogen bind to and occupy the fibrinogen receptor site. Inhibitors of fibrinogen binding inhibit aggregation.
Platelet aggregation was measured at 37° C. in a Chronolog aggregometer. The reaction mixture contained gel-filtered human platelets (2×10^8 per ml), fibrinogen (100 μg/ml), Ca^2+ (1 mM), and the compound to be tested. The aggregation was initiated by adding 10 μM ADP after the other components had been added. The reaction was allowed to proceed for at least 2 minutes.

[2] = molecular target: active form of GP IIb/IIIa (Homo sapiens, UniProt P05106+P08514); experiment: Fluorescence displacement of probe 2-8 from active form of purified GP IIb/IIIa; assay type: binding
Experimental: The purified glycoprotein IIb/IIIa (final concentration 0.64 μM, active form which binds to RGDS affinity column) was mixed with fluorescent antagonist 2-8 (final concentration 1 μM) in a fluorescence cell and fluorescence recorded (excitation wavelength 340 nm, emission range 360-600 nm).

[3] = unactivated GP IIb/IIIa (Table 1), read-out: Ki (nM) (unactivated GP IIb/IIIa)

inactive form of GP IIb/IIIa (unactivated GP IIb/IIIa), sequence (P08514 32-887 limits assumed): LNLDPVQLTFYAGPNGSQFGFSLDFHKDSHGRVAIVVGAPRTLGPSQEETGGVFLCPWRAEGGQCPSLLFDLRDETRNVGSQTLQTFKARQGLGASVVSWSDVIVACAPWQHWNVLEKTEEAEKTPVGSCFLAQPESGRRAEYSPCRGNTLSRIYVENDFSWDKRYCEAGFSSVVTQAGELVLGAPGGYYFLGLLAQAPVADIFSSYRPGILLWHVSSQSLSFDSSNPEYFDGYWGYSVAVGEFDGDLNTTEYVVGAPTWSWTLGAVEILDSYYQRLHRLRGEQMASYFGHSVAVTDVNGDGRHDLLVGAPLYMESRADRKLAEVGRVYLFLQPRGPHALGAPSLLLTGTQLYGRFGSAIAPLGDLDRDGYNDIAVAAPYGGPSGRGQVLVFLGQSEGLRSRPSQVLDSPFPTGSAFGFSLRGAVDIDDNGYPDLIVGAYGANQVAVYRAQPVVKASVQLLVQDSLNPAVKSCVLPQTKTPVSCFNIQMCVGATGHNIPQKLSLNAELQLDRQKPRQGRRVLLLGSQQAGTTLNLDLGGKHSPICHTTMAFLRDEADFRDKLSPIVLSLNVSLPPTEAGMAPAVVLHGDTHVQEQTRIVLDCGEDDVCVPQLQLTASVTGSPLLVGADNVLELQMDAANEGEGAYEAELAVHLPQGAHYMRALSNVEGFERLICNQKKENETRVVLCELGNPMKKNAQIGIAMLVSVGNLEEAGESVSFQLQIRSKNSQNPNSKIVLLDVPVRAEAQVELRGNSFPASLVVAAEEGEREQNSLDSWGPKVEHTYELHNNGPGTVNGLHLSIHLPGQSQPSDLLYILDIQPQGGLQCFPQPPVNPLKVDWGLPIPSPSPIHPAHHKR
inactive form of GP IIb/IIIa (unactivated GP IIb/IIIa), sequence (P08514 891-1039 partner limits assumed): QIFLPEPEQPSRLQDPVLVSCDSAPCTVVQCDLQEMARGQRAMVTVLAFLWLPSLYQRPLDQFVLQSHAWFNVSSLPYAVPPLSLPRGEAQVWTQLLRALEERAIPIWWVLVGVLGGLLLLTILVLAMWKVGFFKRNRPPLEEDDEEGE
inactive form of GP IIb/IIIa (unactivated GP IIb/IIIa), sequence (P05106 27-788): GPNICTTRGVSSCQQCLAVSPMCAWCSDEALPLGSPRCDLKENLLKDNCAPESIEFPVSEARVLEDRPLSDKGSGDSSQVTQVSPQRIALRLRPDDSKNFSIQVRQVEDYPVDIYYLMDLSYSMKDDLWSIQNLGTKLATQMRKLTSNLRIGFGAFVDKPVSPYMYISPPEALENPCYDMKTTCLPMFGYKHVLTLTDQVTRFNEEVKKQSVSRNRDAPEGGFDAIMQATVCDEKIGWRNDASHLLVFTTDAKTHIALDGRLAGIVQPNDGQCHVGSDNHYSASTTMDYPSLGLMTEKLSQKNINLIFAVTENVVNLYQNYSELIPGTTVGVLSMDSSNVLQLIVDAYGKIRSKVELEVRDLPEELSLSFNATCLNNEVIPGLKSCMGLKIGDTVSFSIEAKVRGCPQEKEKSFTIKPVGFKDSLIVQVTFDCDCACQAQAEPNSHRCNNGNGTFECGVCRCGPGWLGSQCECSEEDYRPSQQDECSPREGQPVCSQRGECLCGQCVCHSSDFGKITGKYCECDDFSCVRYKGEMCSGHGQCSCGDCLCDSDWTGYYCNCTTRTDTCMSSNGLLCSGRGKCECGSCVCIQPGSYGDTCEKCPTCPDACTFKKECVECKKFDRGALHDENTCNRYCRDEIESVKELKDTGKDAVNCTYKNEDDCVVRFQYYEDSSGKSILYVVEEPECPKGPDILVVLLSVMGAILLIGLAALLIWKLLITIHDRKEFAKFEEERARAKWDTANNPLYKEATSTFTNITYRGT
active form of GP IIb/IIIa, sequence (P08514 32-887 limits assumed): as the sequence (P08514 32-887 limits assumed) above
active form of GP IIb/IIIa, sequence (P08514 891-1039 partner limits assumed): as the sequence (P08514 891-1039 partner limits assumed) above
active form of GP IIb/IIIa, sequence (P05106 27-788): as the sequence (P05106 27-788) above

## O=C(O)CCNC(=O)c1ccc2c(c1)C(=O)N(CCC1CCNCC1)C2 [Compound A, 2,3-Dihydro-N-(2-carboxyethyl)-2-[2-(4-piperidinyl)ethyl]-3-oxo-1-H-isoindole-5-carboxamide]
[1]; [3]
  Ki: 99 nM
ADP-stimulated platelets
  IC50: 27 nM

## CN(C)c1cccc2c(S(=O)(=O)N[C@@H](CNC(=O)c3ccc4c(c3)C(=O)N(CCC3CCNCC3)C4)C(=O)O)cccc12 [Compound 2-8, 1H-Isoindole-5-carboxamide, 2,3-dihydro-N-[2(S)-dansylamino-3-aminopropionic acid]-2-[2-(4-piperidinyl)ethyl]-3-oxo]
[2]; active form of GP IIb/IIIa, binds to RGDS affinity column, read-out: Ki of fluorescence antagonist 2-8 (used for the calculation)
  Ki: 3.7 nM

## CCCCS(=O)(=O)N[C@@H](CNC(=O)c1ccc2c(c1)C(=O)N(CCC1CCNCC1)C2)C(=O)O [Compound D, 1-H-isoindole-5-carboxamide, 2,3 dihydro-N-[3-(2(S)-n-butylsulfonylamino)propionic acid]-2-[2-(4-piperidinyl)ethyl]-3-oxo]
[1]; [3]
  Ki: 2.4 nM
ADP-stimulated platelets
  IC50: 21 nM

## O=C(NC[C@H](NS(=O)(=O)c1cccnc1)C(=O)O)c1cc2cc(CCC3CCNCC3)sc2s1 [Compound E, 5-[2-(Piperidin-4-yl)ethyl]thieno[2,3-b]thiophene-2-N-[3-2(S)-(3-pyridylsulfonylamino)propionic acid] carboxamide]
[1]; [3]
  Ki: ≤ 2.7 nM
ADP-stimulated platelets
  IC50: 8 nM

## O=C(O)C[C@@H](CCc1c[nH]c2ccccc12)NC(=O)CNC(=O)CCCC1CCNCC1 [Compound B, Pib-Gly-3(R)-[2(indol-3-yl)ethyl]β-alanine hydrogen chloride]
[2]; GP IIb/IIIa 0.64 μM, probe 2-8 1 μM, excitation 340 nm, change in fluorescence at 550 nm, read-out: Ki for nonfluorescent antagonist toward the active form of GP IIb/IIIa
  Ki: 4 nM
[1]; inactive form, does not bind to RGDS affinity column, displacement of 2-8, read-out: Ki on inactive form of GP IIb/IIIa
  Ki: 470 nM
ADP-stimulated platelets
  IC50: 94 nM

From patent publication US5646000A, “Compounds and methods for identifying activated platelets” (Merck & Co., Inc., priority 1994, dated 1997)
